Data from US11542233B2, “Compounds, compositions and methods of use” (Aquinnah Pharmaceuticals, Inc., priority 2016, dated 2023).

Tested on: TDP-43 aggregation in PC12 cells stably expressing GFP-tagged mutant TDP-43 (TDP-43^Q33IK::eGFP)
Test: In vitro efficacy assay: inhibition of TDP-43 inclusions, concentration-response, fluorescence microscopy
Format: cell-based
Conditions: Rattus norvegicus, PC-12, PC12 cells, 1 hour pre-treatment, 15 μM sodium arsenite for 23 hours, 10-point dose response curve
Procedure, shortened: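 PC12 cells stably expressing TDP-43^Q33IK::eGFP pre-treated 1 h with compound, then stressed with 15 μM sodium arsenite for 23 h. Fluorescence microscopy gave the fraction of GFP-positive cells bearing aggregates; IC50 from concentration-response, reported in bins: A <100 nM, B 100–500 nM, C 500 nM–2 μM, D >2 μM.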

Row | IC50 | SMILES
1 | < 100 nM | CCN(C(=O)c1cc2ccccc2[nH]1)[C@H]1CCC[C@@H](NCc2ccc(OC)cc2)C1 [Compound 128]
2 | < 100 nM | CCN(C(=O)c1cc2ccccc2[nH]1)C1CCC[C@@H](NCc2ccc(F)cc2)C1 (stereo partly shown) [Compound 111]
3 | < 100 nM | CCN(C(=O)c1cc2cc(OC(F)(F)F)ccc2[nH]1)[C@H]1CCC[C@@H](NCc2ccccc2)C1 [Compound 542, N-((1S,3R)-3-(benzylamino)cyclohexyl)-N-ethyl-5-(trifluoromethoxy)-1H-indole-2-carboxamide]
4 | < 100 nM | CCN(C(=O)c1cc2ccccc2[nH]1)[C@H]1CCC[C@@H](NCc2cccc(Cl)c2)C1 [Compound 134]
5 | 100 to 500 nM | CCN(C(=O)c1cc2ccccc2[nH]1)[C@H]1CCC[C@@H](N[C@@H]2CCc3cc(F)ccc32)C1 [Compound 125]
6 | < 100 nM | CCN(C(=O)c1cc2ncccc2[nH]1)[C@H]1CCC[C@@H](NCc2ccc(F)cc2)C1 [Compound 152]
7 | 500 to 2000 nM | CCN(C(=O)c1cc2ncccc2[nH]1)[C@H]1CCC[C@@H](N[C@H](c2ccccc2)C(F)(F)F)C1 (single isomer, unassigned) [Compound 416]
8 | < 100 nM | CCN(C(=O)c1cc2ccccc2[nH]1)[C@H]1CCC[C@@H](NCc2ccc(O)cc2)C1 [Compound 428]
9 | < 100 nM | CCN(C(=O)c1nc2cc(S(C)(=O)=O)ccc2[nH]1)[C@H]1CCC[C@@H](NCc2ccccc2)C1 [Compound 540]
10 | 100 to 500 nM | C#CCOc1cccc(CN[C@@H]2CCC[C@H](N(CC)C(=O)c3nc4cc(N)ccc4[nH]3)C2)c1 [Compound 564]
11 | < 100 nM | CCN(C(=O)c1nc2cc(F)ccc2[nH]1)[C@H]1CCC[C@@H](NCc2cc(C3CC3)on2)C1 [Compound 552, N-((1S,3R)-3-(((5-cyclopropylisoxazol-3-yl)methyl)amino)cyclohexyl)-N-ethyl-5-fluoro-1H-benzo[d]imidazole-2-carboxamide]
12 | < 100 nM | CCN(C(=O)c1nc2cc(C#N)ccc2[nH]1)[C@H]1CCC[C@@H](NCc2oc3ccccc3c2C#N)C1 [Compound 520]
13 | 100 to 500 nM | CCN(C(=O)c1cc2ccccc2[nH]1)[C@H]1CCC[C@@H](NCc2ccc(S(C)(=O)=O)cc2)C1 [Compound 432]
14 | < 100 nM | O=C(c1cc2ccccc2[nH]1)N(CC(F)(F)F)[C@H]1CCC[C@@H](NCc2cccc(F)c2)C1 [Compound 170, N-((1S,3R)-3-((3-fluorobenzyl)amino)cyclohexyl)-N-(2,2,2-trifluoroethyl)-1H-indole-2-carboxamide]
15 | 500 to 2000 nM | CCN(C(=O)c1cc2ccccc2[nH]1)[C@H]1CCC[C@H](N2CCc3ccccc3C2)C1 [Compound 116]
16 | < 100 nM | CCN(C(=O)c1nc2cc(C#N)ccc2[nH]1)[C@H]1CCC[C@@H](NCc2cccc(F)c2)C1 [Compound 516, 5-cyano-N-ethyl-N-((1S,3R)-3-((3-fluorobenzyl)amino)cyclohexyl)-1H-benzo[d]imidazole-2-carboxamide]
17 | 500 to 2000 nM | CCN(C(=O)c1cc2ccccc2[nH]1)[C@H]1CCC[C@H](NCc2cccnc2)C1 [Compound 109]
18 | 100 to 500 nM | CCN(C(=O)c1cc2ncccc2[nH]1)[C@H]1CCC[C@@H](N[C@@H](c2ccccc2)C(F)(F)F)C1 (single isomer, unassigned) [Compound 417]
19 | < 100 nM | CCN(C(=O)c1nc2cc(C(F)(F)F)ccc2[nH]1)[C@H]1CCC[C@@H](NCc2ccccc2)C1 [Compound 545]
